Where a name gives a salt, the structure may show the parent alone.
Target: T1, human GPR39 receptor (Homo sapiens, UniProt O43194)
T1 construct: PC3 Cells, Expressing the Endogenous Human GPR39 Receptor; endogenous in cells; host or cells: PC3 (human prostate adenocarcinoma) cells
T1 sequence (O43194 1-453): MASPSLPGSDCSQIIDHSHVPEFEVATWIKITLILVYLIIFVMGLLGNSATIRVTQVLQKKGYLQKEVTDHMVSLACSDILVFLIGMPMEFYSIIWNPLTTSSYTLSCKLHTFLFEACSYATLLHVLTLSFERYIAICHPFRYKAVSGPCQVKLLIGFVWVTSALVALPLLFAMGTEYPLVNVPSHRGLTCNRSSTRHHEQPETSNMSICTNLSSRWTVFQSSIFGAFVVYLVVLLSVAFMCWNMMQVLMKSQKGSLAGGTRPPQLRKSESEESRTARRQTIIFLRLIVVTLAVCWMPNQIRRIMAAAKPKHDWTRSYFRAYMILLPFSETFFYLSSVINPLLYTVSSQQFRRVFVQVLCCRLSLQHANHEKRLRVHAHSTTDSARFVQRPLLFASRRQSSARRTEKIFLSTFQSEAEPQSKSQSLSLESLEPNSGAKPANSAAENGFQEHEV
Experiment: Intracellular calcium response (FLIPR, Calcium-6) in PC3 cells, antagonism of agonist C3 (TC-G 1008) at EC90
Type: cell-based
Conditions: functional pKi (-Log10Ki) by modified Cheng-Prusoff from IC50, PC3 cells endogenously expressing human GPR39, 30 μM ZnCl2, agonist C3 (TC-G 1008) at EC90 1.5 μM; for Ki: read-out: fpKi activity
Method in brief: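 Calcium-6-loaded cells in HEPES buffer pH 7.4 were given compound with 30 μM final ZnCl2 (0.32% DMSO) for 10 min, then challenged with 1.5 μM C3. Baseline-subtracted peak fluorescence expressed as % inhibition of the C3 response; IC50 from four-parameter logistic fit, reported as binned fpKi.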

SMILES	Ki	fpKi activity
Cc1nnc(-c2ccc(C(=O)N3CC4(C3)CC(F)(F)C4)c(-c3ccn(C(C)C)n3)c2)[nH]1 [Example 52, (6,6-difluoro-2-azaspiro[3.3]heptan-2-yl)-[2-(1-isopropylpyrazol-3-yl)-4-(5-methyl-4H-1,2,4-triazol-3-yl)phenyl]methanone]	≤ 50.1 nM	
Cc1nnc(-c2ccc(C(=O)N3CCC(F)(F)CC3)c(-n3ccc(C(C)(C)C)n3)c2)[nH]1 [Example 122, [2-(3-tert-butylpyrazol-1-yl)-4-(5-methyl-4H-1,2,4-triazol-3-yl)phenyl]-(4,4-difluoropiperidin-1-yl)methanone]	≤ 50.1 nM	
CN1CCN(C(=O)c2ccc(Nc3nc4ccccn4n3)cc2N2CCCC2)C(c2ccccc2)C1 (stereo not drawn) [Example 19, (4-methyl-2-phenylpiperazin-1-yl)-[2-pyrrolidin-1-yl-4-([1,2,4]triazolo[1,5-a]pyridin-2-ylamino)phenyl]methanone]	> 6310 nM	
Cc1nnc(-c2ccc(C(=O)N3CCC(F)(F)CC3)c(-c3ccn(C4CCC4)n3)c2)[nH]1 [Example 55, [2-(1-cyclobutylpyrazol-3-yl)-4-(5-methyl-4H-1,2,4-triazol-3-yl)phenyl]-(4,4-difluoropiperidin-1-yl)methanone]	≤ 50.1 nM	
COC1CCN(C(=O)c2ccc(-c3nnc(C)[nH]3)cc2-c2ccn(C(C)C)n2)CC1 [Example 58, (4-methoxypiperidin-1-yl)-[4-(5-methyl-4H-1,2,4-triazol-3-yl)-2-(1-propan-2-ylpyrazol-3-yl)phenyl]methanone]	≤ 50.1 nM	
Cc1cc(Cl)cc(C2CN(C)CCN2C(=O)c2ccc(NC(=O)C3CC3)cc2N2CCCC2)c1 (single isomer, unassigned) [Example 110a, N-[4-[2S or 2R-(3-chloro-5-methylphenyl)-4-methylpiperazine-1-carbonyl]-3-pyrrolidin-1-ylphenyl]cyclopropanecarboxamide hydrochloride]	≤ 50.1 nM	
Cc1nnc(-c2ccc(C(=O)N3CCC(C)(F)CC3)c(-c3ccn(C(C)C)n3)c2)[nH]1 [Example 43, (4-fluoro-4-methylpiperidin-1-yl)-[4-(5-methyl-4H-1,2,4-triazol-3-yl)-2-(1-propan-2-ylpyrazol-3-yl)phenyl]methanone]	≤ 50.1 nM	
O=C(Nc1ccc(C(=O)N2CCS(=O)(=O)CC2)c(C2=CCCC2)c1)C1CC1 [Example 88, N-[3-(cyclopenten-1-yl)-4-(1,1-dioxo-1,4-thiazinane-4-carbonyl)phenyl]cyclopropanecarboxamide]	316 to 1000 nM	
CN(C1CCN(C(=O)c2ccc(NC(=O)C3CC3)cc2N2CCCC2)CC1)S(C)(=O)=O [Example 104, N-[4-[4-[methyl(methylsulfonyl)amino]piperidine-1-carbonyl]-3-pyrrolidin-1-ylphenyl]cyclopropanecarboxamide]	1260 to 6310 nM	
Cc1nnc(-c2ccc(C(=O)N3CCN(C)CC3c3ccccc3)c(N3CCC(C(C)C)C3)c2)[nH]1 (single isomer, unassigned) [Example 125a, (4-methyl-2-phenylpiperazin-1-yl)-[4-(5-methyl-4H-1,2,4-triazol-3-yl)-2-(3-propan-2-ylpyrrolidin-1-yl)phenyl]methanone]	316 to 1000 nM	
CC(C)n1ccc(-c2cc(NC(=O)C3CC3)ccc2C(=O)N2CCN(C)CC2c2ccccc2)n1 (racemic) [Example 30, N-[4-(4-methyl-2-phenylpiperazine-1-carbonyl)-3-(1-propan-2-ylpyrazol-3-yl)phenyl]cyclopropanecarboxamide]	316 to 1000 nM	
O=C(Nc1ccc(-c2nnc(N3CCC(F)(F)CC3)o2)c(N2CCCC2)c1)C1CC1 [Example 100, N-[4-[5-(4,4-difluoropiperidin-1-yl)-1,3,4-oxadiazol-2-yl]-3-pyrrolidin-1-ylphenyl]cyclopropanecarboxamide]		+ +
N#Cc1ccc(-c2cc(NC(=O)C3CC3)ccc2C(=O)N2CCS(=O)(=O)CC2)s1 [Example 26, N-[3-(5-cyanothiophen-2-yl)-4-(1,1-dioxo-1,4-thiazinane-4-carbonyl)phenyl]cyclopropanecarboxamide]	1260 to 6310 nM	
CCOC1CCN(C(=O)c2ccc(-c3nnc(C)[nH]3)cc2-c2ccn(C(C)C)n2)CC1 [Example 42, (4-ethoxy-1-piperidyl)-[2-(1-isopropylpyrazol-3-yl)-4-(5-methyl-4H-1,2,4-triazol-3-yl)phenyl]methanone]	≤ 50.1 nM	
CC(C)(C)c1ccn(-c2cc(NC(=O)C3CC3)ccc2C(=O)N2CCS(=O)(=O)CC2)n1 [Example 118, N-[3-(3-tert-butylpyrazol-1-yl)-4-(1,1-dioxo-1,4-thiazinane-4-carbonyl)phenyl]cyclopropanecarboxamide]	≤ 50.1 nM	
Cc1nnc(-c2ccc(C(=O)N3CCC4(CCO4)CC3)c(-c3ccn(C(C)C)n3)c2)[nH]1 [Example 41, [2-(1-isopropylpyrazol-3-yl)-4-(5-methyl-4H-1,2,4-triazol-3-yl)phenyl]-(1-oxa-7-azaspiro[3.5]nonan-7-yl)methanone]	≤ 50.1 nM	
CCn1nccc1-c1cc(-c2nnc(C)[nH]2)ccc1C(=O)N1CCC(F)(F)CC1 [Example 44, (4,4-difluoropiperidin-1-yl)-[2-(2-ethylpyrazol-3-yl)-4-(5-methyl-4H-1,2,4-triazol-3-yl)phenyl]methanone]	1260 to 6310 nM	
CC(C)n1ccc(-c2cc(NC(=O)C3CC3)ccc2C(=O)N2CCC(F)(F)CC2)n1 [Example 23, N-[4-(4,4-difluoropiperidine-1-carbonyl)-3-(1-propan-2-ylpyrazol-3-yl)phenyl]cyclopropanecarboxamide]	≤ 50.1 nM	
CN1CCN(C(=O)c2ccc(-c3cn[nH]c3)cc2N2CCCC2)C(c2ccccc2)C1 (stereo not drawn) [Example 21, (4-methyl-2-phenylpiperazin-1-yl)-[4-(1H-pyrazol-4-yl)-2-pyrrolidin-1-ylphenyl]methanone]	> 6310 nM	
Cc1cnc(-c2ccc(C(=O)N3CCC(F)(F)CC3)c(-c3ccn(C(C)C)n3)c2)[nH]1 [Example 87, (4,4-difluoro-1-piperidyl)-[2-(1-isopropylpyrazol-3-yl)-4-(5-methyl-1H-imidazol-2-yl)phenyl]methanone]	63.1 to 251 nM	
Cc1nnc(-c2ccc(C(=O)N3CCC(C)CC3)c(-c3nc(C(F)(F)F)cs3)c2)[nH]1 [Example 62, (4-methyl-1-piperidyl)-[4-(5-methyl-4H-1,2,4-triazol-3-yl)-2-[4-(trifluoromethyl)thiazol-2-yl]phenyl]methanone]	≤ 50.1 nM	
O=C(Nc1ccc(C(=O)N2CCS(=O)(=O)CC2)c(-n2ccc(C(F)F)n2)c1)C1CC1 [Example 116, N-[3-[3-(difluoromethyl)pyrazol-1-yl]-4-(1,1-dioxo-1,4-thiazinane-4-carbonyl)phenyl]cyclopropanecarboxamide]	63.1 to 251 nM	
CN1CCN(C(=O)c2ccc(NC(=O)C3CC3)cc2N2CCCC2)C(c2ccccc2C(F)(F)F)C1 (racemic) [Example 106, N-[4-[4-methyl-2-[2-(trifluoromethyl)phenyl]piperazine-1-carbonyl]-3-pyrrolidin-1-ylphenyl]cyclopropanecarboxamide]	316 to 1000 nM	
CN1CCN(C(=O)c2cc(Cl)c(NC(=O)C3CC3)cc2N2CCCC2)C(c2ccccc2)C1 (stereo not drawn) [Example 95, N-[2-chloro-4-(4-methyl-2-phenylpiperazine-1-carbonyl)-5-pyrrolidin-1-ylphenyl]cyclopropanecarboxamide]	> 6310 nM	
Cc1nnc(-c2ccc(C(=O)N3CCC(F)(F)CC3)c(-c3cccc(C(C)C)n3)c2)[nH]1 [Example 74]	≤ 50.1 nM	
CN1CCN(C(=O)c2cc(F)c(NC(=O)C3CC3)nc2N2CCCC2)C(c2ccccc2)C1 (stereo not drawn) [Example 115, N-[3-fluoro-5-(4-methyl-2-phenylpiperazine-1-carbonyl)-6-pyrrolidin-1-ylpyridin-2-yl]cyclopropanecarboxamide]	1260 to 6310 nM	
Cc1nnc(-c2ccc(C(=O)N3CCC(C)(F)CC3)c(-c3cccc(C4CC4)n3)c2)[nH]1 [Example 65, [2-(6-cyclopropyl-2-pyridyl)-4-(5-methyl-4H-1,2,4-triazol-3-yl)phenyl]-(4-fluoro-4-methyl-1-piperidyl)methanone]	≤ 50.1 nM	
CN1CCN(C(=O)c2cc3[nH]c(C4CC4)nc3cc2N2CCCC2)C(c2ccccc2)C1 (stereo not drawn) [Example 113, (2-cyclopropyl-6-pyrrolidin-1-yl-3H-benzimidazol-5-yl)-(4-methyl-2-phenylpiperazin-1-yl)methanone]	> 6310 nM	
Cc1nnc(-c2ccc(C(=O)N3CCC(F)(F)CC3)c(-c3cccc(C(F)(F)F)n3)c2)[nH]1 [Example 75, (4,4-difluoropiperidin-1-yl)-[4-(5-methyl-4H-1,2,4-triazol-3-yl)-2-[6-(trifluoromethyl)pyridin-2-yl]phenyl]methanone]	≤ 50.1 nM	
Cc1nnc(-c2ccc(C(=O)N3CCC(C(F)(F)F)CC3)c(-c3ccn(C(C)C)n3)c2)[nH]1 [Example 48, [4-(5-methyl-4H-1,2,4-triazol-3-yl)-2-(1-propan-2-ylpyrazol-3-yl)phenyl]-[4-(trifluoromethyl)piperidin-1-yl]methanone]	≤ 50.1 nM	

— US20250333405A1, “ANTAGONISTS OF GPR39 PROTEIN” (VASOCARDEA, INC., priority 2024, published 2025)
